In patent publication US20070037752A1, “Novel alanyl-amino peptidase inhibitors for functionally influencing different cells and treating immunological, inflammatory, neuronal, and other diseases” (priority 2003, published 2007):

Each compound was assayed against alanyl aminopeptidases (APN) (Homo sapiens, UniProt P15144) (assay: Inhibition of alanyl aminopeptidase enzymatic activity, fluorogenic substrate (Ala)2-rhodamine 110). Settings: Table 4, starred values = ID50; read-out: ID50 APN (values marked with *).
Assay type: biochemical
Description: The inhibition characteristics measured are referred to as IC-50 values or ID50 values (the latter marked with “*”) for said enzyme. The enzymatic activity was determined by means of the fluorogenic substrate/product (Ala)2-rhodamine 110.

Chain of alanyl aminopeptidases (APN) (P15144 whole entry, species assumed): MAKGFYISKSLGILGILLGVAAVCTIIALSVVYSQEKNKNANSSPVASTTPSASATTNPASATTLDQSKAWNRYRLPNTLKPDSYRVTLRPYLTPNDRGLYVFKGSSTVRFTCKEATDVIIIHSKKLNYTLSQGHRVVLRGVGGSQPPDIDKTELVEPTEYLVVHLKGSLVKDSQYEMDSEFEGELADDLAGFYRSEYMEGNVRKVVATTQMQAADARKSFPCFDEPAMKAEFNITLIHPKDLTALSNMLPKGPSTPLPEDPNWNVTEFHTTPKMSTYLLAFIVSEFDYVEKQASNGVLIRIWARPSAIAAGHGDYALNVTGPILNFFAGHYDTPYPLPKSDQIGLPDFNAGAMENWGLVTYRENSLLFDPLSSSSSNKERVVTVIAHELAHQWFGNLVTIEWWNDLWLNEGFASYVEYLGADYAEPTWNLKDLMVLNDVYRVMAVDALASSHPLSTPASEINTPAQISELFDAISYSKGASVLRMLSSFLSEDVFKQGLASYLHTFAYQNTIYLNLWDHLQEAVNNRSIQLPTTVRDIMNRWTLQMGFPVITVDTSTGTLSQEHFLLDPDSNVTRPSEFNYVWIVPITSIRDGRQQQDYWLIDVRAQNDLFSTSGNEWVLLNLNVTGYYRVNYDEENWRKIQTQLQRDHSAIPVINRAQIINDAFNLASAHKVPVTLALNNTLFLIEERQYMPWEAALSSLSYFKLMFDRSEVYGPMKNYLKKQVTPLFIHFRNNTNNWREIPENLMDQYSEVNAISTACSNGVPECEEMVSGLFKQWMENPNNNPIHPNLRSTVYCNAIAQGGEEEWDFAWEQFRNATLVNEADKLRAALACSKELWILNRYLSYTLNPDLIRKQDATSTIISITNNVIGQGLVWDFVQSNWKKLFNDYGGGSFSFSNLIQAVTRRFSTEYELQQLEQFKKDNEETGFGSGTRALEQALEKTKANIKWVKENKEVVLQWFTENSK

Compound	IC50 [µM]
O=C(O)CC1S/C(=N/N=C/c2ccco2)NC1=O (stereo not shown) [A4.138]	48.1
Cc1ccc(OCC(=O)N/N=C/c2c(Br)cc(Br)c(O)c2Br)c(Br)c1 [A4.147]	54.2
CC(=O)Nc1cccc(C(=O)N/N=C/c2ccc(C)o2)c1 [A4.154]	63.1
COc1ccc(CSCC(=O)N/N=C/c2ccco2)cc1 [A4.157]	66
O=C(N/N=C/c1ccco1)c1cc(-c2ccccc2Cl)n[nH]1 [A4.163]	75.8
COc1ccc(OCC(=O)N/N=C/c2c(Br)cc(Br)c(O)c2Br)cc1 [A4.164]	76.4
Cn1c(=O)c2c(ncn2CC(=O)N/N=C/C=C\c2ccco2)n(C)c1=O [A4.166]	79.8
O=C(N/N=C\C=C\c1ccco1)c1cc(-c2cccs2)n[nH]1 [A4.175]	132
CC(C(=O)N/N=C/c1ccco1)n1nnc2ccccc21 (stereo not shown) [A4.176]	146
C/C(=N\NC(=O)c1cc(-c2ccco2)n[nH]1)c1ccco1 [A4.181]	161
COc1cc(C(=O)NCC(=O)N/N=C\c2ccc(C)o2)cc(OC)c1OC [A4.182]	161

Second part, the compound after the results:

IC50 [µM]	Compound
49.4	O=C(CNC(=O)c1ccccc1)N/N=C/c1ccco1 [A4.140]
64.9	COc1ccc(C(=O)NCC(=O)N/N=C/c2ccco2)cc1OC [A4.156]
67.1	Cc1cccc(C(=O)Nc2ccc(C(=O)N/N=C/c3ccco3)cc2)c1 [A4.158]
73.1	O=C(Cc1ccccc1)NCC(=O)N/N=C/c1ccco1 [A4.161]
80.4	COc1ccc(/C=N/NC(=O)CNC(=O)c2cccc(F)c2)cc1[N+](=O)[O-] [A4.167]
81.8	Cc1ccc(OCC(=O)N/N=C\c2ccco2)c(C)c1 [A4.168]
91.2	O=C(CNC(=O)c1ccccc1Br)N/N=C/c1ccco1 [A4.171]
98.8	O=C(CNC(=O)c1ccccc1O)N/N=C/c1ccco1 [A4.173]
113	Cn1cccc1CC(=O)N/N=C\c1ccco1 [A4.174]
155	O=C(CNC(=O)c1cccc(F)c1)N/N=C/c1ccco1 [A4.180]

Same assay, conditions: Table 4, unstarred values; read-out: IC50APN

Compound	IC50 [µM]
Cc1cc(C(=O)N/N=C/c2ccco2)[nH]n1 [A4.139]	48.2
NC(=S)N/N=C/c1ccco1 [A4.141]	50
Cc1ccc(/C=N/NC(=O)c2cc(C)oc2C)o1 [A4.142]	50.2
CCCCCCCC(=O)N/N=C/c1ccco1 [A4.143]	50.3
Cc1ccc(/C=N\NC(=O)Cc2cccs2)o1 [A4.144]	51.1
CC(/C=C/c1ccco1)=N\NC(=O)COc1ccc(C(C)(C)C)cc1 [A4.145]	53.4
O=C(N/N=C/c1cc(Br)ccc1OC(=O)c1ccc([N+](=O)[O-])cc1)/C(=C\c1ccc2c(c1)OCO2)NC(=O)c1ccccc1 [A4.146]	54.2
O=C(CNS(=O)(=O)c1ccc2c(c1)OCCO2)N/N=C/c1ccco1 [A4.148]	55.6
C/C(=N\NC(=O)c1cc(-c2ccccc2)n[nH]1)c1ccco1 [A4.149]	58.3
O=C(N/N=C/C=C\c1ccco1)c1cccs1 [A4.151]	62.7
Cc1ccc(/C=N/NC(=O)COc2cccc(Cl)c2)o1 [A4.153]	62.7
Cc1ccc(S(=O)(=O)N2CCC(C(=O)N/N=C/c3ccco3)CC2)cc1 [A4.160]	69.3
O=C(CCn1nnc2ccccc21)N/N=C/c1ccco1 [A4.169]	82.9
COc1cccc(/C=N/NC(=O)c2ccn(C)n2)c1O [A4.177]	142
C/C(=N\NC(=O)c1ccco1)c1ccc(C)o1 [A4.179]	152

The remaining lines, values ahead:

IC50 [µM]	Compound
60	O=C(CNC(=O)c1ccccc1F)N/N=C/c1ccc([N+](=O)[O-])o1 [A4.150]
62.7	O=C(N/N=C/c1ccco1)c1cccc(Br)c1 [A4.152]
68.9	O=C(N/N=C/c1ccco1)c1ccc(F)cc1 [A4.159]
74.7	O=C(CCc1ccccc1)N/N=C/c1ccco1 [A4.162]
87.5	O=C(COc1ccccc1)N/N=C/c1ccco1 [A4.170]
91.2	O=C(N/N=C/c1ccco1)c1ccccc1[N+](=O)[O-] [A4.172]
143	O=C(Cc1cccs1)N/N=C\c1ccco1 [A4.178]
